Laboratory results taken from paper PMC4379526 (2015).

Test system: OTA aptabeacon (DNA, aptamer) CGCGCTGGATCGGGTGTGGGTGGCGTAAAGGGAGCATCGGACACAGCGCG
Test: molecular beacon fluorescence, real-time PCR cycler
Conditions: 120 mM NaCl, 5 mM KCl, 20 mM CaCl2, 10 mM Tris pH 8.5, 30 °C

Kd (1 µM aptabeacon, calculated from Kd = [A][L]/[AL])	Compound	binding (2 µM toxin, peak area 67–88% lower than OTA)
800 nM	C[C@@H]1Cc2c(Cl)cc(C(=O)N[C@@H](Cc3ccccc3)C(=O)O)c(O)c2C(=O)O1	
	C[C@@H]1Cc2ccc(C(=O)N[C@@H](Cc3ccccc3)C(=O)O)c(O)c2C(=O)O1	weak
